The assay has as its target T1, ανβ3 integrin receptor (Homo sapiens, UniProt P05106+P06756).
T1 construct: Using cell membrane preparations known to express the ανβ3 integrin receptor; endogenous in cells
Nature of the assay: competitive binding with 125I-echistatin on cell membrane preparations. The following applies: cell membrane preparations expressing ανβ3 integrin receptor; 125I-echistatin as radioligand; Ki calculated using Prism software. As to the method:
Using cell membrane preparations known to express the ανβ3 integrin receptor, competitive binding studies were carried out using ^125I-echistatin and the F-labelled peptides as competing ligand. Binding curves were obtained and Ki's calculated using Prism™ software.

Starred links: 1 amine or outer side, 2 acyl side, 3 side chain; linkers in the order of their positions; H or OH if unused. Positions of bridges follow the written chain, without caps; N, C: chain ends. Residues, ends and D or L forms follow the SMILES beside them. *: point of attachment. X1 = O=C(COCC(=O)*)NCCOCCOCCOCCOCCOCCNC(=O)CSCCCF; CH2 = C([*:1])[*:2]

Consider one compound from patent US7811551B2, “Imaging agents” (GE Healthcare AS, priority 2003, dated 2010).

With `N=C(N)NCCC[C@@H]1NC(=O)[C@@H]2CSCSC[C@H](NC(=O)[C@H](CC(=O)O)NC(=O)CNC1=O)C(=O)N[C@@H](Cc1ccccc1)C(=O)N[C@H](C(N)=O)CSCC(=O)N[C@@H](CCCCNC(=O)COCC(=O)NCCOCCOCCOCCOCCOCCNC(=O)CSCCCF)C(=O)N2` [Example 1] ({CH2CO}-K(X1)CRGDCFC-NH2; linker 2-6 via CH2; thioether N-8), the Ki is 7 nM.

As a reminder, the Ki is a dissociation constant, usually derived from enzyme kinetics or from competition with a known ligand.
